# Assay results published in PubChem BioAssay AID2060357 (Molecular Pharmacology Branch, DTP, NCI, 2025).
# Where “and” joins values, the source holds several entries; their conditions need not be identical. Identical values can stand only once.
# Tested on: 292921-168-R-J2-PDC spheroids with HUVEC/MSC, viability
# Experiment: Anticancer human tumor 292921-168-R-J2-PDC patient-derived pancreatic carcinoma cell line growth inhibition [TAK]
# Details: for viability, T/C: stronger effect = lower value
# Method in brief: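 Tumor cells were grown as spheroids with HUVEC and hMSC (60:25:15) and treated with targeted agents combined with TAK-243 or ipatasertib. Drugs were tested in half-log steps down from near the clinical Cmax, or from 10 microM where Cmax was unknown.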
# [1] = curve of first compound, second compound 0.3 µM
# [2] = curve of first compound, second compound 0.949 µM
# [3] = curve of first compound, second compound 3 µM
# [4] = curve of first compound, second compound 9.49 µM
# [5] = curve of first compound, second compound 30 µM
# 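Also: spheroids exposed to drugs for seven days before readout.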
smiles,measurement,setting,value
CCCS(=O)(=O)Nc1ccc(F)c(C(=O)c2c[nH]c3ncc(-c4ccc(Cl)cc4)cc23)c1F + CC(C)NCC(C(=O)N1CCN(c2ncnc3c2C(C)CC3O)CC1)c1ccc(Cl)cc1,IC50,[1],29900 nM
same,IC50,[2],> 100000 nM
same,IC50,[3],11000 nM
same,IC50,[4],5500 nM
same,IC50,[5],< 316 nM
same,"viability, T/C","second compound 0.3 µM, first compound 0.316 µM",109%
same,"viability, T/C","second compound 0.3 µM, first compound 1 µM",106%
same,"viability, T/C","second compound 0.3 µM, first compound 3.16 µM",102%
same,"viability, T/C","second compound 0.3 µM, first compound 10 µM",67.5%
same,"viability, T/C","second compound 0.3 µM, first compound 31.6 µM",44.7%
same,"viability, T/C","second compound 0.3 µM, first compound 100 µM",52.2%
same,"viability, T/C","second compound 0.949 µM, first compound 0.316 µM",95.2%
same,"viability, T/C","second compound 0.949 µM, first compound 1 µM",104%
same,"viability, T/C","second compound 0.949 µM, first compound 3.16 µM",89.6%
same,"viability, T/C","second compound 0.949 µM, first compound 10 µM",52.5%
same,"viability, T/C","second compound 0.949 µM, first compound 31.6 µM",41.4%
same,"viability, T/C","second compound 0.949 µM, first compound 100 µM",65.2%
same,"viability, T/C","second compound 3 µM, first compound 0.316 µM",94.7%
same,"viability, T/C","second compound 3 µM, first compound 1 µM",96%
same,"viability, T/C","second compound 3 µM, first compound 3.16 µM",81.3%
same,"viability, T/C","second compound 3 µM, first compound 10 µM",44.2%
same,"viability, T/C","second compound 3 µM, first compound 31.6 µM",41%
same,"viability, T/C","second compound 3 µM, first compound 100 µM",16.8%
same,"viability, T/C","second compound 9.49 µM, first compound 0.316 µM",72.5%
same,"viability, T/C","second compound 9.49 µM, first compound 1 µM",75.4%
same,"viability, T/C","second compound 9.49 µM, first compound 3.16 µM",62.5%
same,"viability, T/C","second compound 9.49 µM, first compound 10 µM",35.5%
same,"viability, T/C","second compound 9.49 µM, first compound 31.6 µM",26.2%
same,"viability, T/C","second compound 9.49 µM, first compound 100 µM",17.7%
same,"viability, T/C","second compound 30 µM, first compound 0.316 µM",48.3%
same,"viability, T/C","second compound 30 µM, first compound 1 µM",49.2%
same,"viability, T/C","second compound 30 µM, first compound 3.16 µM",35.7%
same,"viability, T/C","second compound 30 µM, first compound 10 µM",16.6%
same,"viability, T/C","second compound 30 µM, first compound 31.6 µM",14.9%
same,"viability, T/C","second compound 30 µM, first compound 100 µM",9.5%
COc1c(OCCCN2CCOCC2)ccc2c3n(c(=NC(=O)c4cnc(N)nc4)nc12)CCN3,"viability, T/C",compound 0.00316 µM,74.5% and 83.2%
same,"viability, T/C",compound 0.01 µM,43.7% and 51.3%
same,"viability, T/C",compound 0.0316 µM,28.2% and 30.1%
same,"viability, T/C",compound 0.1 µM,14.5% and 16.6%
same,"viability, T/C",compound 0.316 µM,10.4% and 12.4%
same,"viability, T/C",compound 1 µM,8.83% and 11.2%
same,IC50,curve of compound,8.15 nM and 10.9 nM
CC(C)CC(NC(=O)CNC(=O)c1cc(Cl)ccc1Cl)B1OC(=O)CC(CC(=O)O)(C(=O)O)O1 (stereo unspecified),"viability, T/C",compound 0.000316 µM,99.7% and 104%
same,"viability, T/C",compound 0.001 µM,107% and 92.5%
same,"viability, T/C",compound 0.00316 µM,105% and 99.2%
same,"viability, T/C",compound 0.01 µM,107% and 102%
same,"viability, T/C",compound 0.0316 µM,37.5% and 35.4%
same,"viability, T/C",compound 0.1 µM,11.4% and 6.93%
same,IC50,curve of compound,25.5 nM and 24.4 nM
Cn1cnc2c(F)c(Nc3ccc(Br)cc3Cl)c(C(=O)NOCCO)cc21 + CC(C)NCC(C(=O)N1CCN(c2ncnc3c2C(C)CC3O)CC1)c1ccc(Cl)cc1,IC50,[1],< 9.49 nM
same,IC50,[2],< 9.49 nM
same,IC50,[3],< 9.49 nM
same,IC50,[4],< 9.49 nM
same,IC50,[5],< 9.49 nM
same,"viability, T/C","second compound 0.3 µM, first compound 0.00949 µM",49.9%
same,"viability, T/C","second compound 0.3 µM, first compound 0.03 µM",36.5%
same,"viability, T/C","second compound 0.3 µM, first compound 0.0949 µM",30.9%
same,"viability, T/C","second compound 0.3 µM, first compound 0.3 µM",26.8%
same,"viability, T/C","second compound 0.3 µM, first compound 0.949 µM",21.4%
same,"viability, T/C","second compound 0.3 µM, first compound 3 µM",13.1%
same,"viability, T/C","second compound 0.949 µM, first compound 0.00949 µM",45.3%
same,"viability, T/C","second compound 0.949 µM, first compound 0.03 µM",34.7%
same,"viability, T/C","second compound 0.949 µM, first compound 0.0949 µM",30.9%
same,"viability, T/C","second compound 0.949 µM, first compound 0.3 µM",28.1%
same,"viability, T/C","second compound 0.949 µM, first compound 0.949 µM",21.5%
same,"viability, T/C","second compound 0.949 µM, first compound 3 µM",13%
same,"viability, T/C","second compound 3 µM, first compound 0.00949 µM",39.5%
same,"viability, T/C","second compound 3 µM, first compound 0.03 µM",30.3%
same,"viability, T/C","second compound 3 µM, first compound 0.0949 µM",27.6%
same,"viability, T/C","second compound 3 µM, first compound 0.3 µM",24.1%
same,"viability, T/C","second compound 3 µM, first compound 0.949 µM",17.3%
same,"viability, T/C","second compound 3 µM, first compound 3 µM",11.8%
same,"viability, T/C","second compound 9.49 µM, first compound 0.00949 µM",32.2%
same,"viability, T/C","second compound 9.49 µM, first compound 0.03 µM",24.5%
same,"viability, T/C","second compound 9.49 µM, first compound 0.0949 µM",22.6%
same,"viability, T/C","second compound 9.49 µM, first compound 0.3 µM",20.6%
same,"viability, T/C","second compound 9.49 µM, first compound 0.949 µM",15.6%
same,"viability, T/C","second compound 9.49 µM, first compound 3 µM",10.9%
same,"viability, T/C","second compound 30 µM, first compound 0.00949 µM",25.3%
same,"viability, T/C","second compound 30 µM, first compound 0.03 µM",21.2%
same,"viability, T/C","second compound 30 µM, first compound 0.0949 µM",18.4%
same,"viability, T/C","second compound 30 µM, first compound 0.3 µM",17.5%
same,"viability, T/C","second compound 30 µM, first compound 0.949 µM",13.8%
same,"viability, T/C","second compound 30 µM, first compound 3 µM",8.92%
Cn1cnc2c(F)c(Nc3ccc(Br)cc3Cl)c(C(=O)NOCCO)cc21,"viability, T/C",compound 0.00949 µM,57.2% and 47.3%
same,"viability, T/C",compound 0.03 µM,40.2% and 34.1%
same,"viability, T/C",compound 0.0949 µM,33.8% and 27.4%
same,"viability, T/C",compound 0.3 µM,31% and 24.2%
same,"viability, T/C",compound 0.949 µM,25.6% and 21.6%
same,"viability, T/C",compound 3 µM,15.3% and 11.8%
same,IC50,curve of compound,15.8 nM and < 9.49 nM
